# Assay results taken from ChEMBL document CHEMBL1126995, “Nonpeptide -turn mimetics of enkephalin” (1993).
# How the values were obtained:
# Mus musculus = species on record: Mus musculus; experiment: Tested for the analgesic activity in mouse writhing assay; assay type: functional
# [1] = target: Mu-type opioid receptor (Rattus norvegicus) (UniProt P33535); experiment: Binding affinity against mu opioid receptors from rat brain (minus cerebellum) using [3H]DAMGO (2.0 nM) at 10 uM; assay type: tissue-based
# Sequence of Mu-type opioid receptor (Rattus norvegicus) (P33535 whole entry): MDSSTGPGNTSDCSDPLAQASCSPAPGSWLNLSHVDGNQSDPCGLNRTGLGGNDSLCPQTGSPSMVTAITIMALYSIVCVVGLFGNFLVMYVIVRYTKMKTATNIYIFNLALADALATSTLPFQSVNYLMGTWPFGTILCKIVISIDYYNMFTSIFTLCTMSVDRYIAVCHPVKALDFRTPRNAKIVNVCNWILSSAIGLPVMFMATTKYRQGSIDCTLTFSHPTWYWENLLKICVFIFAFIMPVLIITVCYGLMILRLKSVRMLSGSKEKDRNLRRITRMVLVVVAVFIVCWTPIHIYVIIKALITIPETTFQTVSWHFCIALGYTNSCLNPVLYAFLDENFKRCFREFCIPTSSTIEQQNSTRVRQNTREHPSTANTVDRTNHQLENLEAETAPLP
# [2] = target: Delta-type opioid receptor (Rattus norvegicus) (UniProt P33533); experiment: Binding affinity against Opioid receptor delta 1 from rat brain using (1.0 nM [3H]DTLET or 1.0 nM [3H]-DSLET) at 6 uM
# Sequence of Delta-type opioid receptor (Rattus norvegicus) (P33533 whole entry): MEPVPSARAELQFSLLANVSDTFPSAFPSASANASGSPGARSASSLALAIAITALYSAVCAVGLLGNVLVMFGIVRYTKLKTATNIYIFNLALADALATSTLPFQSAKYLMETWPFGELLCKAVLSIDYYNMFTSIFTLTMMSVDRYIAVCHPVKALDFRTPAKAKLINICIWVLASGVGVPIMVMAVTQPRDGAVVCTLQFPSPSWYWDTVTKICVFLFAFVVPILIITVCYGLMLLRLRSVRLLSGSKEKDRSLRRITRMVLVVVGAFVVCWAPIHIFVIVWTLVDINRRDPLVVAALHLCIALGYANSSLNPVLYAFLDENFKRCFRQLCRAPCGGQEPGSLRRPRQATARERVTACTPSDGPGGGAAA
compound,measurement,setting,value
COC(=O)C[C@@H]1CC[C@H](Cc2ccccc2)NC(=O)CCC(CNC(=O)[C@@H](N)Cc2ccc(O)cc2)C(=O)N1 (stereo partly drawn),ED50,Mus musculus,<10 µg/mL
same,Displacement,[1],53%
same,Displacement,[2],50%
